We go through 12 compounds from PubChem BioAssay (NCI).

Some test systems named below: OVCAR-4 ovarian; SNB-78 CNS; DLD-1 colon; CCRF-CEM leukemia; HT29 colon; OVCAR-5 ovarian; MOLT-4 leukemia; HCC-2998 colon; SK-MEL-2 melanoma; HOP-92 NSCLC.
What all share (test): NCI anticancer screen, dose series, 48 h

Several values for one entry are separate records, joined by “and”; a condition that tells them apart may be missing. Equal values may be shown once.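 Values below derive from 48-hour exposures of cells grown in 96-well plates, with endpoints linearly interpolated between the two concentrations bracketing the appropriate inhibition level. Abbreviation: GI50, concentration required for 50% inhibition of growth. At the TGI there is no net growth.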

On to `COc1cc(C)c(C(=O)/C=C/c2cc(OC)c(O)c(OC)c2)cc1O`, for which the TGI in the assay on OVCAR-4 ovarian was 49.3 µM; in the assay with SNB-78 CNS it was over 100 µM; with DLD-1 colon, 35.1 µM; in the assay on CCRF-CEM leukemia, 62.7 µM; with HT29 colon, over 100 µM; in the assay with OVCAR-5 ovarian, 69.9 µM. For the same compound, the TGI in the assay on MOLT-4 leukemia is over 100 µM; in the assay on HCC-2998 colon, 30.5 µM; in the assay on SK-MEL-2 melanoma, 38.8 µM.

Regarding `CC(C)O/C=C1\C(=O)C2(SCCS2)[C@H]2CCCC[C@@H]12`, the TGI with OVCAR-4 ovarian was over 100 µM; in the assay with SNB-78 CNS it was over 100 µM; with DLD-1 colon it was over 100 µM; in the assay with CCRF-CEM leukemia, 73.2 µM; in the assay on MOLT-4 leukemia it was 46.4 µM; in the assay with HCC-2998 colon it was over 100 µM. In the assay on SK-MEL-2 melanoma, the TGI is over 100 µM.

With `CC1=C(C(=O)Nc2ccccc2C)C(c2ccc(N(C)C)cc2)C(C(=O)Nc2ccccc2C)=C(C)N1`, the TGI in the assay with DLD-1 colon, with CCRF-CEM leukemia, with HT29 colon, in the assay on OVCAR-5 ovarian, in the assay with MOLT-4 leukemia and in the assay on HCC-2998 colon was over 100 µM in each case. In addition, the TGI in the assay with SK-MEL-2 melanoma is over 100 µM.

Regarding `O=C1c2cnccc2Cc2cccc3c2N1c1ccccc1S3`, the TGI in the assay on OVCAR-4 ovarian was 68.4 µM; with DLD-1 colon, over 100 µM; in the assay with CCRF-CEM leukemia, 85 µM; in the assay with HT29 colon it was 74.8 µM; in the assay on MOLT-4 leukemia it was over 100 µM; with HCC-2998 colon, 41 µM. Besides, the figures for the TGI in the assay on SK-MEL-2 melanoma and in the assay on HOP-92 NSCLC were 32.5 µM and 38.5 µM, respectively.

Take `O=C1c2c(c3c4ccccc4n4c3c3c2c2ccccc2n3C/C=C\C4)C(=O)N1Cc1ccccc1`: the TGI in the assay on DLD-1 colon, in the assay with CCRF-CEM leukemia, in the assay with HT29 colon, in the assay with OVCAR-5 ovarian, with MOLT-4 leukemia and in the assay on HCC-2998 colon was over 100 µM each time.

`OCCc1cnco1`: the TGI in the assay on OVCAR-4 ovarian, in the assay on SNB-78 CNS, in the assay on DLD-1 colon, in the assay with CCRF-CEM leukemia, in the assay on HT29 colon and in the assay on MOLT-4 leukemia was over 100 µM throughout. The same compound showed a TGI in the assay on HCC-2998 colon of over 100 µM.

On to `COc1cc(Nc2ncc3c(n2)-c2ccc(Cl)cc2C(c2c(F)cccc2OC)=NC3)ccc1C(=O)O`, for which the GI50 in the assay with OVCAR-4 ovarian is 3.7 µM; in the assay on CCRF-CEM leukemia, 0.579 µM; in the assay on HT29 colon, 2.24 µM; with OVCAR-5 ovarian, 7.54 µM; in the assay with MOLT-4 leukemia, 8.09 µM; in the assay with HCC-2998 colon, 19.2 µM. The GI50 in the assay with SK-MEL-2 melanoma was 13.4 µM; in the assay on HOP-92 NSCLC, 2.35 µM. In addition, the TGI in the assay with OVCAR-4 ovarian is over 86.2 µM; in the assay with CCRF-CEM leukemia, over 65.9 µM; in the assay on HT29 colon it was 23.8 µM; in the assay with OVCAR-5 ovarian it was over 77.7 µM; in the assay with MOLT-4 leukemia it was over 75.9 µM; in the assay on HCC-2998 colon, over 100 µM. Besides, the TGI in the assay on SK-MEL-2 melanoma was 38 µM; in the assay with HOP-92 NSCLC it was 14.1 µM.

Take `CC1=C[C@H]2c3c(c(O)c(O)c4oc5cc(O)cc(O)c5c(=O)c34)[C@H](c3cc(O)c(O)c4oc5cc(O)cc(O)c5c(=O)c34)[C@H]2C(C)(C)C1`: the GI50 with OVCAR-4 ovarian was 3.92 µM and 2.9 µM; with CCRF-CEM leukemia it was 0.641 µM; in the assay with HT29 colon, 1.49 µM and 2.96 µM; in the assay on OVCAR-5 ovarian, 2.71 µM and 2.1 µM; in the assay with MOLT-4 leukemia, 0.764 µM and 1.92 µM; in the assay on HCC-2998 colon it was 1.91 µM and 2.5 µM. For the same compound, the GI50 in the assay on SK-MEL-2 melanoma was 2.41 µM; in the assay on HOP-92 NSCLC it was 1.94 µM and 1.1 µM. Also, the TGI in the assay with OVCAR-4 ovarian is 23.2 µM and 16.6 µM; in the assay with CCRF-CEM leukemia, 4.1 µM; in the assay on HT29 colon, 5.74 µM and 12 µM; in the assay with OVCAR-5 ovarian it was 10.5 µM and 6.58 µM; in the assay with MOLT-4 leukemia it was 3.31 µM and 12.9 µM; in the assay with HCC-2998 colon, 3.78 µM and 10 µM. The TGI in the assay on SK-MEL-2 melanoma is 5.17 µM and 6.41 µM; in the assay on HOP-92 NSCLC, 4.73 µM and 3.33 µM.

With `O=C1CC(c2ccccc2)Cc2nc3ccc(Cl)cc3cc21` (stereo not drawn), the GI50 with OVCAR-4 ovarian is 7.26 µM; in the assay on CCRF-CEM leukemia it was 0.0395 µM; in the assay on HT29 colon it was 0.246 µM; with OVCAR-5 ovarian it was 0.791 µM; in the assay on MOLT-4 leukemia, 0.0644 µM; with HCC-2998 colon it was 2.39 µM. In addition, the GI50 with SK-MEL-2 melanoma is 0.207 µM; in the assay with HOP-92 NSCLC it was 1.51 µM. Moreover, the TGI in the assay on OVCAR-4 ovarian was over 100 µM; in the assay with CCRF-CEM leukemia it was over 100 µM; in the assay on HT29 colon, over 100 µM; with OVCAR-5 ovarian, over 100 µM; in the assay with MOLT-4 leukemia, over 100 µM; in the assay on HCC-2998 colon, 20.2 µM. Moreover, the TGI in the assay on SK-MEL-2 melanoma was over 100 µM; in the assay on HOP-92 NSCLC, 42.5 µM.

With `CC1SC2=NC3=C(c4ccccc4C3=O)C(c3ccc(Br)cc3)N2C1=O` (stereo not drawn), the TGI in the assay on OVCAR-4 ovarian, with DLD-1 colon, with CCRF-CEM leukemia, in the assay with HT29 colon, with OVCAR-5 ovarian and in the assay on MOLT-4 leukemia was over 100 µM in each case. Moreover, the TGI in the assay with HCC-2998 colon, in the assay with SK-MEL-2 melanoma and with HOP-92 NSCLC was over 100 µM in each case.

Regarding `COc1ccc(C(=O)Nc2ncc(Cc3ccc(F)cc3)s2)cc1`, the GI50 in the assay with OVCAR-4 ovarian is 1.38 µM; in the assay with CCRF-CEM leukemia, 0.0446 µM; with HT29 colon it was 0.0438 µM; in the assay on OVCAR-5 ovarian, 0.406 µM; with MOLT-4 leukemia, 0.0574 µM; with HCC-2998 colon it was 0.163 µM. The GI50 is 3.95 µM in the assay with SK-MEL-2 melanoma and 1.45 µM with HOP-92 NSCLC. Also, the TGI in the assay with OVCAR-4 ovarian was over 100 µM; in the assay on CCRF-CEM leukemia, over 100 µM; in the assay with HT29 colon, over 100 µM; in the assay on OVCAR-5 ovarian it was 99.6 µM; in the assay with MOLT-4 leukemia, over 100 µM; in the assay with HCC-2998 colon, 2.49 µM. In addition, the results for the TGI in the assay with SK-MEL-2 melanoma and in the assay with HOP-92 NSCLC were over 100 µM and 76 µM, respectively.

In the case of `CC(C)(C)c1ccc(C(=O)N/N=C/c2ccc(O)cc2O)cc1`, the GI50 in the assay on OVCAR-4 ovarian was 0.238 µM; with CCRF-CEM leukemia it was 0.26 µM; in the assay with HT29 colon, 0.885 µM; in the assay on OVCAR-5 ovarian it was 0.661 µM; in the assay on MOLT-4 leukemia, 0.346 µM; in the assay with HCC-2998 colon, 0.695 µM. Further, the GI50 in the assay on SK-MEL-2 melanoma is 1.89 µM; in the assay on HOP-92 NSCLC, 1.65 µM. The TGI in the assay with OVCAR-4 ovarian was 14.9 µM; with CCRF-CEM leukemia it was over 36.9 µM; with HT29 colon it was 8.33 µM; in the assay on OVCAR-5 ovarian it was 14.7 µM; with MOLT-4 leukemia, 14.9 µM; with HCC-2998 colon it was 7.62 µM. The figures for the TGI in the assay on SK-MEL-2 melanoma and with HOP-92 NSCLC were 16 µM and 13.7 µM, respectively.
